Reference: patent publication US20200354331A1, “ICARIIN DERIVATIVES” (H. LEE MOFFITT CANCER CENTER AND RESEARCH INSTITUTE, INC., priority 2014, published 2020)
Entries after “also recorded” stand apart in the source; their conditions may differ. Values belong to the compound of their own block, whether it stands above or below them.

Legend:
[1] = test system: BMNCs from three healthy donors; experiment: Colony formation (CFU-E, BFU-E, CFU-GM) in MethoCult H4434; type: cell-based; settings: healthy donor BMNCs treated 48 hours, different concentrations
Protocol: FIG. 2 depicts the effect, or lack thereof, of ICA and ICT on hematopoiesis. BMNCs from three healthy donors were treated with ICA or ICT for 48 hours after which colony formation was assessed using MethoCult H4434 complete medium with cytokines. CFU-E, BFU-E and CFU-GM were indentified and counted using an inverted light microscope. Each bar represents the mean results of three individuals with duplicate plates. Results are expressed as means±SD.
Specifically, BMNCs from three healthy donors were treated with different concentrations of ICA or ICT for 48 hours after which colony formation was assessed using MethoCult H4434 complete medium with cytokines. The mixture was placed in 35-mm culture dishes (1×10^5 cells/each dish) and incubated at 37° C. in 5% CO2 for approximately 7-14 days. After incubation, colonies of CFU-E, BFU-E and CFU-GM were indentified and counted using an inverted light microscope. […] Although, these cells were obtained from spleens, it was also found ICA/ICT has a similar effect on MDSCs isolated from tumor tissue. Here, Gr1^+ cells were isolated from tumors of 4T1 tumor-bearing mice. […] Bars represent the relative percentage of MDSC as compared to DMSO treated cells measured by flow cytometry (FIG. 3A). The production of ROS (FIG. 3B) and NO (FIG. 3C) activity of purified MDSC from tumor tissue was also measured.

[2] = target: GMP-specific recombinant bovine phosphodiesterase Type V (Bos taurus, UniProt Q28156); experiment: PDE5 phosphodiesterase inhibition, PDE-Glo system; type: biochemical
4T1 tumors = experiment: 4T1 tumor growth in vivo; parameters: species or system BALB/c mice; settings: 100 mg/kg i.p. three times weekly
Protocol: One of the most striking features of ICA and ICT is their anti-tumorigenic ability in vivo. Seven days post-infection 1 cm diameter 4T1 tumors from 5 mice were established in BALB/c mice. Mice were treated with 100 mg/kg of ICA, ICT or vehicle (i.p.) three times weekly and tumor size (mean and SD) was monitored every 2 to 3 days. The percentages of double-positive Gr-1+CD11b′ MDSCs were determined for spleens of five mice per group. Cell phenotype was evaluated by flow cytometry. […] ICA or ICT on the differentiation of MDSC.

[3] = test system: NK cells and lymphokine-activated killer cells; settings: 0.1 to 1.0 microgram/ml; tumor patients and healthy donors; cited from earlier work
SIGLEC3 = experiment: SIGLEC3/CD33 expression on PBMC (Q-PCR, flow cytometry); type: cell-based, human; settings: healthy PBMC, 48 hours; for SIGLEC3 mRNA and protein expression: 1 μM (Q-PCR)
Protocol: FIG. 4 depicts the down-regulation of the RNA expression of SIGLEC3 on PBMCs due to ICA and ICT. Healthy PBMC were cultured for 48 hours with 1 μM of DMSO, ICA or ICT and the expression of SIGLEC3 was measured by Q-PCR and analyzed by the AACt method. Error bars indicate SEM.
FIG. 5 depicts the effect of ICT on the expression of SIGLEC3 and SIGLEC5 on PBMC. PBMC from healthy donors were treated for 48 hours with DMSO or ICT and stained extra-cellularly with SIGLEC3-PE and SIGLEC5/14-APC antibodies (BD biosciences).
SIGLEC3 is highly expressed in MDSCs isolated from patients with AML (FIG. 6a). […] Specifically, healthy PBMC were cultured for 48 hours with 1 μM of DMSO, ICA or ICT and the expression of SIGLEC3 was measured by Q-PCR and analyzed by the MCt method. Also, PBMC from healthy donors were treated for 48 hours with DMSO or ICT and stained extra-cellularly with SIGLEC3-PE and SIGLEC5/14-APC antibodies (BD biosciences). S100A9 can ligate with SIGLEC3, denoting the presence of an uncharacterized pathway that could be linked to the identification of specific strategies targeting the regulation of MDSC activation.
Healthy PBMC were cultured for 48 hours with […] of the PDE5 inhibitor ICT and the expression of SIGLEC3 measured by the DDCt method. The experimental control is PBMC treated with DMSO and the internal control was GAPDH. Error bars indicate the SEM of three separate donors/experiments.

K562 [4] = experiment: Apoptosis rates of ICT in cell lines; type: cell-based
MCF-7 [5] = experiment: Apoptosis rates of ICT in cell lines; type: cell-based
PBMC = experiment: Apoptosis rates of ICT in cell lines; type: cell-based
CD33 and iNOS = experiment: Expression of CD33 and iNOS on MDS-BM (flow cytometry, Q-PCR); type: cell-based; parameters: concentration or dose not given beside the values; settings: 48 hours, 20 ICT
Raji [6] = experiment: Apoptosis rates of ICT in cell lines; type: cell-based
Raji [7] = experiment: IC50 of ICT in cell lines; type: cell-based; settings: Homo sapiens
4T1 [8] = experiment: Apoptosis rates of ICT in cell lines; type: cell-based
B16 [9] = experiment: IC50 of ICT in cell lines; type: cell-based; settings: Mus musculus
K562 [10] = experiment: IC50 of ICT in cell lines; type: cell-based; settings: Homo sapiens
Bone marrow = experiment: Apoptosis rates of ICT in cell lines; type: cell-based
MCF-7 [11] = experiment: IC50 of ICT in cell lines; type: cell-based; settings: Homo sapiens, MCF7
4T1 [12] = experiment: IC50 of ICT in cell lines; type: cell-based; settings: Mus musculus
U937 = experiment: Apoptosis rates of ICT in cell lines; type: cell-based
B16 [13] = experiment: Apoptosis rates of ICT in cell lines; type: cell-based

Compound: COc1ccc(-c2oc3c(CC=C(C)C)c(O[C@@H]4O[C@H](CO)[C@@H](O)[C@H](O)[C@H]4O)cc(O)c3c(=O)c2O[C@@H]2O[C@@H](C)[C@H](O)[C@@H](O)[C@H]2O)cc1 [ICA, Icariin]
effect on hematopoiesis (colony formation) [1]: do not affect hematopoiesis | phosphodiesterase (enzymatic) activity of PDE5 [2]: block the phosphodiesterase activity of PDE5; also recorded: inhibit the enzymatic activity of PDE5 | tumor growth in vivo (4T1 tumors): inhibit tumor growth in vivo | NK cell activity and LAK activity [3]: increase NK cell activity and lymphokine-activated killer cell (LAK) activity | SIGLEC3 mRNA and protein expression (SIGLEC3): down-regulating SIGLEC3 at both the mRNA and protein expression levels

effect on hematopoiesis (colony formation) [1]: do not affect hematopoiesis | IC50 (Raji [7]): 25.6 µM | IC50 (B16 [9]): 25.8 µM | IC50 (K562 [10]): 50.5 µM | IC50 (MCF-7 [11]): 23.2 µM | IC50 (4T1 [12]): 6.7 µM
Compound: COc1ccc(-c2oc3c(CCC(C)(C)O)c(O)cc(O)c3c(=O)c2O)cc1 [ICT, 3,5,7-trihydroxy-4′-methoxy-8-(3-hydroxy-3-methylbutyl)-flavone]
Apoptosis rates (K562 [4]; K562, 5 μM): 5.5% | Apoptosis rates (K562 [4]; K562, 10 μM): 6.7% | Apoptosis rates (K562 [4]; K562, 20 μM): 7.8% | Apoptosis rates (MCF-7 [5]; MCF-7, 5 μM): 3.9% | Apoptosis rates (MCF-7 [5]; MCF-7, 10 μM): 4.1% | Apoptosis rates (MCF-7 [5]; MCF-7, 20 μM): 6.1% | phosphodiesterase (enzymatic) activity of PDE5 [2]: block the phosphodiesterase activity of PDE5; also recorded: inhibit the enzymatic activity of PDE5 | Apoptosis rates (PBMC; 5 μM): 4.6% | Apoptosis rates (PBMC; 10 μM): 5.5% | Apoptosis rates (PBMC; 20 μM): 6.9% | expression of CD33 and iNOS on MDS-BM (CD33 and iNOS): down-regulate the expression of CD33 and iNOS on MDS-BM | Apoptosis rates (Raji [6]; 5 μM): 9.1% | Apoptosis rates (Raji [6]; 10 μM): 9.2% | Apoptosis rates (Raji [6]; 20 μM): 10.0% | tumor growth in vivo (4T1 tumors): inhibit tumor growth in vivo | Apoptosis rates (4T1 [8]; 4T1, 5 μM): 4.0% | Apoptosis rates (4T1 [8]; 4T1, 10 μM): 6.3% | Apoptosis rates (4T1 [8]; 4T1, 20 μM): 7.1% | Apoptosis rates (Bone marrow; 5 μM): 2.7% | Apoptosis rates (Bone marrow; 10 μM): 4.3% | Apoptosis rates (Bone marrow; 20 μM): 4.8% | Apoptosis rates (U937; U937, 5 μM): 3.1% | Apoptosis rates (U937; U937, 10 μM): 2.6% | Apoptosis rates (U937; U937, 20 μM): 2.7% | SIGLEC3 mRNA and protein expression (SIGLEC3): down-regulating SIGLEC3 at both the mRNA and protein expression levels | expression of CD33 on PBMC (SIGLEC3; 20 μM): down-regulate the expression of CD33 on PBMC | Apoptosis rates (B16 [13]; B16, 5 μM): 2.5% | Apoptosis rates (B16 [13]; B16, 10 μM): 3.8% | Apoptosis rates (B16 [13]; B16, 20 μM): 3.5%
